What all share (assay type): functional, subcellular
For assay [1], the target named is 20S proteasome. Nature of the assay: Inhibitory concentration to inhibit trypsin-like activity of 20S proteasome from human leukemia HL-60 cells was determined.
Assay [2] has as its target 20S proteasome. In words: Inhibitory concentration to inhibit the PGPH activity of 20S proteasome prepared from human leukemia HL-60 cells was determined.
Assay [3] addresses 20S proteasome. In words: Inhibitory concentration to inhibit chymotrypsin-like activity of 20S proteasome prepared from human leukemia HL-60 cells was determined.

pIC50: −log10 of the molar value. Where a SMILES comes first, the peptide text is derived from it. [ ]: non-standard residue; d: D form. The star is where a group is joined. ξ: configuration not given here. ξY = NC(Cc1ccc(O)cc1)C(=O)O; Isovaleryl = CC(C)CC(=O)*; Hexanoyl = CCCCCC(=O)*; PhAc = O=C(Cc1ccccc1)*

For `CC(C)[C@H](NC(=O)[C@H](Cc1ccc(O)cc1)NC(=O)Cc1cccc2ccccc12)C(=O)NC(C=O)Cc1ccc(O)cc1` (stereo partly specified), the negative-log IC50 (pIC50) is 5.92 in assay [1], 5.31 in assay [2] and 8.15 in assay [3].
For `COc1ccc(CC(C=O)NC(=O)[C@@H](NC(=O)[C@H](Cc2ccc(OC)cc2)NC(=O)CC(C)C)C(C)C)cc1` (stereo partly specified) (Isovaleryl-Tyr(Me)-Val-[ξY](Me)-aldehyde), the negative-log IC50 (pIC50) in assay [1] is 4.43; in assay [2] it was 4.25; in assay [3] it was 6.92.
On the same counts, the results for `COc1ccc(CC(C=O)NC(=O)[C@@H](NC(=O)[C@H](Cc2ccc(O)cc2)NC(=O)CC(C)C)C(C)C)cc1` (stereo partly drawn) (Isovaleryl-Tyr-Val-[ξY](Me)-aldehyde) are 4.68, 4.68 and 6.72.
With `CC(C)[C@H](NC(=O)[C@H](Cc1ccc(O)cc1)NC(=O)Cc1ccccc1)C(=O)NC(C=O)Cc1ccc(O)cc1` (stereo partly drawn) (PhAc-Tyr-Val-[ξY]-aldehyde), the negative-log IC50 (pIC50) in assay [1] was 5.70; in assay [2], 4.80; in assay [3] it was 7.57.
On the same counts, the results for `COc1ccc(CC(C=O)NC(=O)[C@@H](NC(=O)[C@H](Cc2ccc(OC)cc2)NC(=O)Cc2cccc3ccccc23)C(C)C)cc1` (stereo partly specified) are below 4.00, below 4.00 and 7.57.
On the same counts, the results for `CC(C)[C@H](NC(=O)[C@H](Cc1ccc(O)cc1)NC(=O)Cc1ccc2ccccc2c1)C(=O)NC(C=O)Cc1ccc(O)cc1` (stereo partly specified) are 6.15, 5.33 and 7.85.
The like results for `COc1ccc(CC(C=O)NC(=O)[C@@H](NC(=O)[C@H](Cc2ccc(O)cc2)NC(=O)Cc2cccc3ccccc23)C(C)C)cc1` (stereo partly specified) were, in that order, 5.22, 4.42 and 7.74.
For `CC(C)[C@H](NC(=O)[C@H](Cc1ccc(O)cc1)NC(=O)CC1CCCCC1)C(=O)NC(C=O)Cc1ccc(O)cc1` (stereo partly specified), the negative logarithm of the IC50 (pIC50) in assay [1] is 5.52; in assay [2], 4.77; in assay [3], 6.48.
The like results for `COc1ccc(C[C@H](NC(=O)Cc2cccc3ccccc23)C(=O)N[C@H](C(=O)NC(C=O)Cc2ccc(O)cc2)C(C)C)cc1` (stereo partly specified) were, in that order, 5.22, 4.51 and 7.70.
The like results for `CC(C)CC(=O)N[C@@H](Cc1ccc(O)cc1)C(=O)N[C@H](C(=O)NC(C=O)Cc1ccc(O)cc1)C(C)C` (stereo partly drawn) [TYROPEPTIN A] (Isovaleryl-Tyr-Val-[ξY]-aldehyde) were, in that order, 5.30, 4.17 and 6.85.
On the same counts, the results for `CCCCCC(=O)N[C@@H](Cc1ccc(O)cc1)C(=O)N[C@H](C(=O)NC(C=O)Cc1ccc(O)cc1)C(C)C` (stereo partly drawn) (Hexanoyl-Tyr-Val-[ξY]-aldehyde) are 5.70, 4.70 and 7.43.
In the case of `COc1ccc(C[C@@H](C=O)NC(=O)[C@@H](NC(=O)[C@H](Cc2ccc(OC)cc2)NC(=O)CN(C)C)C(C)C)cc1`, the negative logarithm of the IC50 (pIC50) in assay [1] was 5.11; in assay [2] it was below 4.00; in assay [3], 5.92.

For orientation: pIC50 means the negative decadic logarithm of the IC50, by convention in mol/L. A lower pIC50 goes with a high IC50.

(Values after ChEMBL document CHEMBL1143504, “Structure-based design of derivatives of tyropeptin A as the potent and selective inhibitors of mammalian 20S proteasome” (Bioorg Med Chem Lett, 2005).)
